Reference: PMC8508710, “Biochemical Characterization of 13-Lipoxygenases of Arabidopsis thaliana” (International Journal of Molecular Sciences, 2021)

Key:
[1] = target: T1, LOX4 (Arabidopsis thaliana, UniProt Q9FNX8); experiment: LOX4 activity, oxygen electrode (polarography); format: biochemical; parameters: made in house; host or cells: E. coli Nico21(DE3), pET15b; settings: enzyme incubated with 280 µM chemical (1/10 vol of 2.8 mM), injected into 30 µM LeA, 50 mM Tris-HCl pH 7.2; vs solvent control; read-out: Polarography Relative Activity (%) LOX4
T1 sequence (Q9FNX8 71-926): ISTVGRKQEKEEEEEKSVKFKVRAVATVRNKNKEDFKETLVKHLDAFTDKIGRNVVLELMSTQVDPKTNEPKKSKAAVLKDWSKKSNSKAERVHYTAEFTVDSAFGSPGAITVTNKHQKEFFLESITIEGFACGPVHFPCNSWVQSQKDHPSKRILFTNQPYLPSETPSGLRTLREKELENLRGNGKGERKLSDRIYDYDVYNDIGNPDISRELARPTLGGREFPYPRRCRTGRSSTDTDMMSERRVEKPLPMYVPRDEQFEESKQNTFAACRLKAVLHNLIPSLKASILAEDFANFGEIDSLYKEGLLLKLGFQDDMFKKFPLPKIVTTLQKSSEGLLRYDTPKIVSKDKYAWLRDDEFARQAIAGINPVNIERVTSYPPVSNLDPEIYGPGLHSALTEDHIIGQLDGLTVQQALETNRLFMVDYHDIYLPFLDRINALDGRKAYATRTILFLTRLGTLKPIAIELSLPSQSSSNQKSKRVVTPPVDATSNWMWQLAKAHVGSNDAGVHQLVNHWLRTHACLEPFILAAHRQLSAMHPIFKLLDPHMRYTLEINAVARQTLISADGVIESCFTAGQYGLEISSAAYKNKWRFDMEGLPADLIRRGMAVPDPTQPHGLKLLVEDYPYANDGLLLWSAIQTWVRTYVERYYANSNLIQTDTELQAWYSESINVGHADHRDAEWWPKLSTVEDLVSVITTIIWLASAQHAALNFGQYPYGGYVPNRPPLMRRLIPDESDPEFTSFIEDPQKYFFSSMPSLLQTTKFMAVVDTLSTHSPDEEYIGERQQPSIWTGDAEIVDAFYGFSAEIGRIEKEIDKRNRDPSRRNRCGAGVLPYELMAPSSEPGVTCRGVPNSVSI

[2] = target: T2, LOX3 (Arabidopsis thaliana, UniProt Q9LNR3); experiment: LOX3 activity, oxygen electrode (polarography); format: biochemical; parameters: made in house; host or cells: E. coli Nico21(DE3), pET15b; settings: enzyme incubated with 280 µM chemical (1/10 vol of 2.8 mM), injected into 30 µM LeA, 50 mM Tris-HCl pH 7.2; vs solvent control; read-out: Polarography Relative Activity (%) LOX3
T2 sequence (Q9LNR3 71-919): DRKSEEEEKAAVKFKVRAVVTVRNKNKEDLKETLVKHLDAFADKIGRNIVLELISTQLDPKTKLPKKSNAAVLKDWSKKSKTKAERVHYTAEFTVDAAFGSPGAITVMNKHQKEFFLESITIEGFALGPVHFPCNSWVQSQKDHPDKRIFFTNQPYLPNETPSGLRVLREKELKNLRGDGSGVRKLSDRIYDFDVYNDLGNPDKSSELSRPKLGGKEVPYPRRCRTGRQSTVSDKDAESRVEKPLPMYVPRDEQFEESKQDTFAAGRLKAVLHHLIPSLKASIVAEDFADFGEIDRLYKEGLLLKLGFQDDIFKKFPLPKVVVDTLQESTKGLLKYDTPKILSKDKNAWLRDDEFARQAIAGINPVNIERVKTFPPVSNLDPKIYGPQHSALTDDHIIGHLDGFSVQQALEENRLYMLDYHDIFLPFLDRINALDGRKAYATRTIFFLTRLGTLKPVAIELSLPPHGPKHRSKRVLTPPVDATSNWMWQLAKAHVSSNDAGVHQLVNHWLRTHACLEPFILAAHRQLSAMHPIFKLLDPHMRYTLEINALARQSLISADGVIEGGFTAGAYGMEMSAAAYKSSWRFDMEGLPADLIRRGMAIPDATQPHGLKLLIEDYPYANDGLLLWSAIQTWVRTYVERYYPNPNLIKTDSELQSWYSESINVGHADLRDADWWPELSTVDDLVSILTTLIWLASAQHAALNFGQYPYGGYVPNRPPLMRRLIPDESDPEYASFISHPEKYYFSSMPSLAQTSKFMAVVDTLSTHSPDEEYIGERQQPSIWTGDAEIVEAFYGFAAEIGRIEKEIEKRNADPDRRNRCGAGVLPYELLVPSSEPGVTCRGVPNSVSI

Structure (SMILES)	activity at 280 µM [1]	activity at 280 µM [2]
CCC=CCC1C(=O)C=CC1CCCCCCCC(=O)O (stereo not drawn) [12-OPDA, cis-(+)-12-oxophytodienoic acid]	21 ± 5%	60 ± 5%
O=C(O)c1ccccc1O [SA, salicylic acid]	101 ± 4%	101 ± 5%
CC/C=C\CC1C(=O)CCC1CC(=O)OC (centres unmarked) [MJ, methyl jasmonate]	95 ± 3%	85 ± 5%
O=C(O)/C=C/CCCCCCCCC(=O)O [TA, traumatic acid]	100 ± 9%	100 ± 5%
